Assay results published in BigSolDB 2.1.

O=C(NNC(=S)Nc1ccc(Cl)cc1)c1ccncc1
solubility (mole fraction)
Conditions | 298.15 K | 308.15 K | 318.15 K | 328.15 K | 338.15 K
in transcutol | 0.0423 | 0.0468 | 0.0514 | 0.0565 | 0.0607
in water | 5.17e-07 | 5.93e-07 | 7.05e-07 | 8.28e-07 | 9.75e-07
